One data set deals with protein kinase C. As to conditions: specifically the (−)-enantiomer; read-out: potency (EC50); cited from earlier work.
Data set [1] has as its target PKC. To be noted: competes with [3H] phorbol dibutyrate; read-out: Ki for binding to PKC; cited from earlier work.
Data set [2] deals with PKC. To be noted: cited from earlier work.
On the set-up of data set [3]: species or system mice. To be noted: mouse, in vivo, iv. The text has this: (§1) Mouse studies may be performed using an angiotensin, as described above, in accordance with the protocol described below. The following metrics may be used to evaluate dosing regimens: induction of brain postsynaptic anchoring protein PSD-95, upregulation of BDNF levels in brain, upregulation of HGF levels in brain, minimal downregulation of PKC-ε levels, and elevation of brain and plasma concentrations of the angiotensin. Groups of 2-3 mice may be formed and housed in an approved research animal facility. Water may be given ad libitum. A first study involves three groups of mice with animals in each group dosed weekly for 1, 2, 3, or 6 consecutive weeks. Each group has its own control group containing the same number of mice. For example, mice in the first, second and third groups may receive an intravenous (i.v.) injection of 10 μg/m^2, 15 μg/m^2, and 25 μg/m^2 dose of an angiotensin. For each dose, mice in that group may receive a single injection of the angiotensin weekly for a predetermined number of consecutive weeks. Following dosing, mice are sacrificed, and the blood and brain of each animal is collected for further analysis.

The test system of the next data set is PSD-95. The experiment in a line: Mouse dosing study: PSD-95 levels. Type of data set: in vivo, mice. To be noted: 25 μg/m^2 i.v. once per week, after three weeks.
Source text: as §1

The next data set concerns BDNF. The experiment in a line: Mouse dosing study: brain BDNF levels. In kind it is in vivo. To be noted: mice.
Source text: as §1

Another data set concerns NCI 60 cell line. As to conditions: NCI 60 cell line screen; cited from earlier work.
Data set [4] concerns squamous cell carcinoma and melanoma. As to conditions: used topically; cited from earlier work.
Setting [5] is: A-ring bryologs, read-out: affinity for PKC.

The text below walks through data of patent US20230000943A1, “METHOD OF INDUCING SYNAPTOGENESIS BY ADMINISTERING ANGIOTENSIN AND ANALOGUES THEREOF” (Synaptogenix, Inc., priority 2021, published 2023).

Like-named read-outs stand apart in the source and are kept apart here.

In general, EC50 refers to the concentration that produces a half-maximal response. As for `CCCCCCCCc1ccc2c3c(c[nH]c13)C[C@@H](CO)NC(=O)[C@H](C(C)C)N2C` [octylindolactam V, Octylindolactam V], on protein kinase C, the EC50 was 29 nM.
`CC1=C[C@]23C(=O)[C@@H](C=C(COC(=O)c4ccccc4)[C@@H](O)[C@]2(O)[C@H]1OC(=O)c1ccccc1)[C@H]1[C@@H](C[C@H]3C)C1(C)C` [Ingenol 3,20-dibenzoate]: the Ki at PKC [1] was 240 nM.
Take `CCCCCCCC(=O)O[C@H]1/C(=C/C(=O)OC)CC2C[C@H](CO)OC(=O)C[C@H](O)C[C@@H]3CCC[C@H](C[C@@H]4CCO[C@H](/C=C/C(C)(C)[C@]1(O)O2)O4)O3` [Analog 1]: at PKC [2] (Table 1 Bryologs, read-out: PKC Affin), the Ki was 0.25 nM. Also, in the data set on PKC [2] (compared with Bryostatin-1 and the other bryologs), the “affinity for PKC (in words)” value is “highest affinity for PKC”.
Turning to `CCCCCCCC(=O)OC1C(=CC(=O)OC)CC2CC(CO)OC(=O)CC(O)CCOC(C(C)(C)C)CC3CCOC(C=CC(C)(C)C1(O)O2)O3` (stereo not shown) [bryolog 3], the Ki on PKC [2] (setting [5]) is 6.5 nM.
With angiotensin, the “concentration in brain relative to plasma” value in data set [3] is “less than its concentration in plasma”. Moreover, in data set [3], the “crossing of the blood-brain-barrier” value is “crosses the BBB”. Further, the “PSD-95 in brain and blood samples” value in the data set on PSD-95 is recorded as “higher amounts of PSD-95”. Besides, the “brain BDNF levels” value in the data set with BDNF (15 μg/m^2 for three consecutive weeks) was “some increase”; with BDNF (25 μg/m^2) it was “maximum increase”; in the data set with BDNF (25 μg/m^2, 3 on/3 off/3 on regimen) it was “remain elevated”; with BDNF (after three consecutive weekly doses at 25 μg/m^2), “highest level”.
Take `CC1=CC[C@H](C)C(C)(C)[C@@H]1/C=C/C(C)=C/CC[C@@]1(CO)[C@H](CCCO)/C(=C(/C)C=O)CC[C@]1(C)O` [Iripallidal]: in the data set with NCI 60 cell line, the “GI50 (concentration required to inhibit growth by 50%)” value is “micromolar to nanomolar range”.
Take `C/C=C(/C)C(=O)O[C@H]1C(C)=C[C@]23C(=O)[C@@H](C=C(CO)[C@@H](O)[C@]12O)[C@H]1[C@@H](C[C@H]3C)C1(C)C` [Ingenol-3-angelate]: the antitumor activity entry in data set [4] is on record as “exhibits antitumor activity”.
Regarding `CCCCCCCC(=O)OC1C(=CC(=O)OC)CC2CC(CO)OC(=O)CC(O)CCOC(CCCc3ccc(Br)cc3)CC3CCOC(C=CC(C)(C)C1(O)O2)O3` (stereo not shown) [bryolog 5], the Ki at PKC [2] (setting [5]) is 1.9 nM.
For the molecule `CCCCCCCC(=O)OC1C(=CC(=O)OC)CC2CC(CO)OC(=O)CC(O)CCOC(c3ccccc3)CC3CCOC(C=CC(C)(C)C1(O)O2)O3` (stereo not shown) [bryolog 4], the Ki on PKC [2] (setting [5]) is 2.3 nM.
